# Assay results as given in patent publication US8883841B2, “Oncogenic ras-specific cytotoxic compound and methods of use thereof” (The Board of Regents of the University of Texas System, priority 2005, dated 2014).
# Where two headings read alike, the source gives them in different places.
# How the values were obtained:
# [1] = system: panel of 60 cancer cell lines; assay: NCI Developmental Therapeutics Program in-vitro testing, panel of 60 cancer cell lines (whole panel); assay type: cell-based
# [2] = system: SR; assay: NCI in-vitro testing, SR (Leukemia); assay type: cell-based; details: for GI50: Homo sapiens
# [3] = system: M14; assay: NCI in-vitro testing, M14 (Melanoma)
# [4] = system: U251; assay: NCI in-vitro testing, U251 (CNS Cancer)
# [5] = system: SK-MEL-2; assay: NCI in-vitro testing, SK-MEL-2 (Melanoma)
# [6] = system: 786-0; assay: NCI in-vitro testing, 786-0 (Renal Cancer)
# [7] = system: SN12C; assay: NCI in-vitro testing, SN12C (Renal Cancer)
# [8] = system: CAKI-1; assay: NCI in-vitro testing, CAKI-1 (Renal Cancer); details: for Percent Growth: CAK1-1
# [9] = system: RXF 393; assay: NCI in-vitro testing, RXF 393 (Renal Cancer)
# [10] = system: BT-549; assay: NCI in-vitro testing, BT-549 (Breast Cancer)
# [11] = system: COLO 205; assay: NCI in-vitro testing, COLO 205 (Colon Cancer)
# [12] = system: HCC-2998; assay: NCI in-vitro testing, HCC-2998 (Colon Cancer)
# [13] = system: OVCAR-5; assay: NCI in-vitro testing, OVCAR-5 (Ovarian Cancer)
# [14] = system: SK-OV-3; assay: NCI in-vitro testing, SK-OV-3 (Ovarian Cancer)
# [15] = system: DU-145; assay: NCI in-vitro testing, DU-145 (Prostate Cancer)
smiles,measurement,setting,value
"OCc1cn(Cc2ccc(Cl)cc2)c2ccccc12 [Oncrasin K060, 1H-Indole-3-methanol, 1-[(4-chlorophenyl)methyl]-]",anticancer spectrum in NCI panel,"[1]; leukemia, non small lung, colon, melanoma, ovarian, renal, breast",active in a number of cancer cell lines
same,GI50,"[1]; of 54 cancer cell lines tested, read-out: medium 50% growth inhibition (GI50) concentration",1.12 µM
same,TGI,[2],1.26E−8 Molar
same,GI50,"[2]; Leukemia, NCI Mean Graphs, read-out: Log10 GI50 (converted)",< 0.01 µM
same,GI50,[2]; read-out: GI50,< 1 µM
same,Percent Growth,[2]; Log10 Concentration −4.0 Molar,−71%
same,Percent Growth,[2]; Log10 Concentration −5.0 Molar,−18%
same,Percent Growth,[2]; Log10 Concentration −6.0 Molar,−71%
same,Percent Growth,[2]; Log10 Concentration −7.0 Molar,−26%
same,Percent Growth,[2]; Log10 Concentration −8.0 Molar,43%
same,GI50,"[3]; Homo sapiens, M14",6.16 µM
same,CC50,"[3]; Homo sapiens, M14, read-out: LC50",55.9 µM
same,GI50,"[3]; Homo sapiens, M14, read-out: Log10 GI50 (converted)",5.13 µM
same,TGI,[3]; M14,2.03E−5 Molar
same,Percent Growth,"[3]; M14, Log10 Concentration −4.0 Molar",−79%
same,Percent Growth,"[3]; M14, Log10 Concentration −5.0 Molar",35%
same,Percent Growth,"[3]; M14, Log10 Concentration −6.0 Molar",87%
same,Percent Growth,"[3]; M14, Log10 Concentration −7.0 Molar",94%
same,Percent Growth,"[3]; M14, Log10 Concentration −8.0 Molar",95%
same,GI50,"[4]; Homo sapiens, U-251",2.46 µM
same,CC50,"[4]; Homo sapiens, U-251, read-out: LC50",> 100 µM
same,GI50,"[4]; Homo sapiens, U-251, read-out: Log10 GI50 (converted)",2.45 µM
same,TGI,[4]; U251,2.63E−5 Molar
same,Percent Growth,"[4]; U251, Log10 Concentration −4.0 Molar",−35%
same,Percent Growth,"[4]; U251, Log10 Concentration −5.0 Molar",25%
same,Percent Growth,"[4]; U251, Log10 Concentration −6.0 Molar",55%
same,Percent Growth,"[4]; U251, Log10 Concentration −7.0 Molar",84%
same,Percent Growth,"[4]; U251, Log10 Concentration −8.0 Molar",93%
same,GI50,"[5]; Homo sapiens, SK-MEL-2",1.58 µM
same,CC50,"[5]; Homo sapiens, SK-MEL-2, read-out: LC50",48.2 µM
same,GI50,"[5]; Homo sapiens, SK-MEL-2, read-out: Log10 GI50 (converted)",1.58 µM
same,TGI,[5]; SK-MEL-2,5.94E−6 Molar
same,Percent Growth,"[5]; SK-MEL-2, Log10 Concentration −4.0 Molar",−64%
same,Percent Growth,"[5]; SK-MEL-2, Log10 Concentration −5.0 Molar",−20%
same,Percent Growth,"[5]; SK-MEL-2, Log10 Concentration −6.0 Molar",67%
same,Percent Growth,"[5]; SK-MEL-2, Log10 Concentration −7.0 Molar",84%
same,Percent Growth,"[5]; SK-MEL-2, Log10 Concentration −8.0 Molar",98%
same,TGI,[6]; 786-0,2.19E−5 Molar
same,Percent Growth,"[6]; 786-0, Log10 Concentration −4.0 (Molar)",−52%
same,Percent Growth,"[6]; 786-0, Log10 Concentration −5.0 (Molar)",27%
same,Percent Growth,"[6]; 786-0, Log10 Concentration −6.0 (Molar)",76%
same,Percent Growth,"[6]; 786-0, Log10 Concentration −7.0 (Molar)",88%
same,Percent Growth,"[6]; 786-0, Log10 Concentration −8.0 (Molar)",99%
same,GI50,"[6]; Homo sapiens, 786-0",34 µM
same,CC50,"[6]; Homo sapiens, 786-0, read-out: LC50",94.7 µM
same,GI50,"[6]; Homo sapiens, 786-0, read-out: Log10 GI50 (converted)",3.39 µM
same,TGI,[7],1.94E−5 Molar
same,GI50,[7]; Homo sapiens,3.56 µM
same,CC50,"[7]; Homo sapiens, read-out: LC50",87.2 µM
same,GI50,"[7]; Homo sapiens, read-out: Log10 GI50 (converted)",3.55 µM
same,Percent Growth,[7]; Log10 Concentration −4.0 Molar,−68%
same,Percent Growth,[7]; Log10 Concentration −5.0 Molar,27%
same,Percent Growth,[7]; Log10 Concentration −6.0 Molar,78%
same,Percent Growth,[7]; Log10 Concentration −7.0 Molar,93%
same,Percent Growth,[7]; Log10 Concentration −8.0 Molar,97%
same,Percent Growth,[8]; Log10 Concentration −4.0 Molar,1%
same,Percent Growth,[8]; Log10 Concentration −5.0 Molar,−47%
same,Percent Growth,[8]; Log10 Concentration −6.0 Molar,−21%
same,Percent Growth,[8]; Log10 Concentration −7.0 Molar,−3%
same,Percent Growth,[8]; Log10 Concentration −8.0 Molar,1%
same,GI50,"[8]; Homo sapiens, CAKI-1",< 0.01 µM
same,CC50,"[8]; Homo sapiens, CAKI-1, read-out: LC50",> 100 µM
same,GI50,"[8]; Homo sapiens, CAKI-1, read-out: Log10 GI50 (converted)",< 0.01 µM
same,GI50,"[9]; Homo sapiens, RXF 393",< 0.01 µM
same,CC50,"[9]; Homo sapiens, RXF 393, read-out: LC50",23.2 µM
same,GI50,"[9]; Homo sapiens, RXF 393, read-out: Log10 GI50 (converted)",< 0.01 µM
same,TGI,[9]; RXF 393,2.44E−7 Molar
same,Percent Growth,"[9]; RXF 393, Log10 Concentration −4.0 Molar",−85%
same,Percent Growth,"[9]; RXF 393, Log10 Concentration −5.0 Molar",−30%
same,Percent Growth,"[9]; RXF 393, Log10 Concentration −6.0 Molar",−12%
same,Percent Growth,"[9]; RXF 393, Log10 Concentration −7.0 Molar",7%
same,Percent Growth,"[9]; RXF 393, Log10 Concentration −8.0 Molar",31%
same,TGI,[10]; BT-549,1.73E−5 Molar
same,Percent Growth,"[10]; BT-549, Log10 Concentration −4.0 Molar",−85%
same,Percent Growth,"[10]; BT-549, Log10 Concentration −5.0 Molar",26%
same,Percent Growth,"[10]; BT-549, Log10 Concentration −6.0 Molar",97%
same,Percent Growth,"[10]; BT-549, Log10 Concentration −7.0 Molar",118%
same,Percent Growth,"[10]; BT-549, Log10 Concentration −8.0 Molar",110%
same,GI50,"[10]; Homo sapiens, BT-549",4.62 µM
same,CC50,"[10]; Homo sapiens, BT-549, read-out: LC50",4.88 µM
same,GI50,"[10]; Homo sapiens, BT-549, read-out: Log10 GI50 (converted)",4.57 µM
same,TGI,[11]; COLO 205,1.58E−5 Molar
same,Percent Growth,"[11]; COLO 205, Log10 Concentration −4.0 Molar",−72%
same,Percent Growth,"[11]; COLO 205, Log10 Concentration −5.0 Molar",18%
same,Percent Growth,"[11]; COLO 205, Log10 Concentration −6.0 Molar",61%
same,Percent Growth,"[11]; COLO 205, Log10 Concentration −7.0 Molar",93%
same,Percent Growth,"[11]; COLO 205, Log10 Concentration −8.0 Molar",98%
same,GI50,"[11]; Homo sapiens, COLO 205",1.05 µM
same,CC50,"[11]; Homo sapiens, COLO 205, read-out: LC50",56.9 µM
same,GI50,"[11]; Homo sapiens, COLO 205, read-out: Log10 GI50 (converted)",1.05 µM
same,TGI,[12]; HCC-2998,2.04E−5 Molar
same,Percent Growth,"[12]; HCC-2998, Log10 Concentration −4.0 Molar",−97%
same,Percent Growth,"[12]; HCC-2998, Log10 Concentration −5.0 Molar",43%
same,Percent Growth,"[12]; HCC-2998, Log10 Concentration −6.0 Molar",62%
same,Percent Growth,"[12]; HCC-2998, Log10 Concentration −7.0 Molar",86%
same,Percent Growth,"[12]; HCC-2998, Log10 Concentration −8.0 Molar",95%
same,GI50,"[12]; Homo sapiens, HCC 2998",4.33 µM
same,CC50,"[12]; Homo sapiens, HCC 2998, read-out: LC50",45.2 µM
same,GI50,"[12]; Homo sapiens, HCC 2998, read-out: Log10 GI50 (converted)",4.37 µM
same,GI50,"[13]; Homo sapiens, OVCAR-5",< 0.01 µM
same,CC50,"[13]; Homo sapiens, OVCAR-5, read-out: LC50",> 100 µM
same,GI50,"[13]; Homo sapiens, OVCAR-5, read-out: Log10 GI50 (converted)",< 0.01 µM
same,TGI,[13]; OVCAR-5,3.72E−7 Molar
same,Percent Growth,"[13]; OVCAR-5, Log10 Concentration −4.0 Molar",−50%
same,Percent Growth,"[13]; OVCAR-5, Log10 Concentration −5.0 Molar",−23%
same,Percent Growth,"[13]; OVCAR-5, Log10 Concentration −6.0 Molar",−7%
same,Percent Growth,"[13]; OVCAR-5, Log10 Concentration −7.0 Molar",10%
same,Percent Growth,"[13]; OVCAR-5, Log10 Concentration −8.0 Molar",43%
same,GI50,"[14]; Homo sapiens, SK-OV-3",1.82 µM
same,CC50,"[14]; Homo sapiens, SK-OV-3, read-out: LC50",> 100 µM
same,GI50,"[14]; Homo sapiens, SK-OV-3, read-out: Log10 GI50 (converted)",1.82 µM
same,TGI,[14]; SK-OV-3,2.96E−5 Molar
same,Percent Growth,"[14]; SK-OV-3, Log10 Concentration −4.0 Molar",−16%
same,Percent Growth,"[14]; SK-OV-3, Log10 Concentration −5.0 Molar",16%
same,Percent Growth,"[14]; SK-OV-3, Log10 Concentration −6.0 Molar",52%
same,Percent Growth,"[14]; SK-OV-3, Log10 Concentration −7.0 Molar",85%
same,Percent Growth,"[14]; SK-OV-3, Log10 Concentration −8.0 Molar",96%
same,TGI,[15]; DU-145,2.78E−5 Molar
same,Percent Growth,"[15]; DU-145, Log10 Concentration −4.0 Molar",−53%
same,Percent Growth,"[15]; DU-145, Log10 Concentration −5.0 Molar",42%
same,Percent Growth,"[15]; DU-145, Log10 Concentration −6.0 Molar",96%
same,Percent Growth,"[15]; DU-145, Log10 Concentration −7.0 Molar",105%
same,Percent Growth,"[15]; DU-145, Log10 Concentration −8.0 Molar",108%
same,GI50,"[15]; Homo sapiens, DU-145",7.25 µM
same,CC50,"[15]; Homo sapiens, DU-145, read-out: LC50",93.3 µM
same,GI50,"[15]; Homo sapiens, DU-145, read-out: Log10 GI50 (converted)",7.24 µM
